What was measured:
[1] = target: Dual specificity protein kinase TTK (Homo sapiens) (UniProt P33981); test: Inhibition of Mps1-mediated p38 MAPK phosphorylation after 90 mins by DELFIA assay
[2] = target: Dual specificity protein kinase TTK (Homo sapiens) (UniProt P33981); test: Inhibition of FLAG-tagged Mps1 autophosphorylation in human RERF-LC-AI cells expressing Tet-suppressible promotor after 3 hrs by immunoblotting

Row | Compound | IC50 [1] [nM] | IC50 [2] [nM]
1 | CCOc1nc(NCCc2ccccc2)cc(N)c1C#N | 3970 | 
2 | CCOc1nc(Nc2ccc(C(N)=O)cc2)cc(N)c1C#N | 37 | 1800
3 | CCOc1nc(C(=O)NCc2ccccc2)cc(N)c1C#N [4-Amino-5-cyano-6-ethoxy-pyridine-2-carboxylic acid benzylamide] | 529 | 
4 | CCOc1nc(NC(=O)Cc2ccccc2)cc(N)c1C#N [N-(4-Amino-5-cyano-6-ethoxypyridin-2-yl)-2-phenylacetamide] | 4200 | 

The remaining compounds from weak to strong by IC50 [1], led by results:

Row | IC50 [1] [nM] | IC50 [2] [nM] | Compound
5 | 568 |  | CCOc1nc(C(=O)NCc2ccc(S(C)(=O)=O)cc2)cc(N)c1C#N [4-amino-5-cyano-6-ethoxy-N-[(4-methanesulfonylphenyl)methyl]pyridine-2-carboxamide]
6 | 228 |  | CCOc1nc(Nc2ccccc2)cc(N)c1C#N

Reference: BindingDB's records for doi:10.1021/ml3000879 (2012)
